# Results reported in US20210046106A1, “METHODS OF TREATING CANCER WITH ANDROGEN DEPRIVATION THERAPY IN COMBINATION WITH AN INHIBITOR OF THE SP1 TRANSCRIPTION FACTOR” (The Board of Trustees of the Leland Stanford Junior …, priority 2019, published 2021).
# “And” between values parts separate entries of the source, which are not always exact repeats. Identical values can stand only once. “Also recorded” adds a separate entry of the source.
# Tests used:
# [1] = Phase 1 trial of sodium selenite with palliative radiation therapy: adverse events / toxicity
# Source text: Patients: This study was approved by the Food and Drug Administration (IND 122151), the Stanford University Internal Review Board, and the Scientific Review Committee for the Stanford Cancer Institute. […] The study was initially open only to prostate cancer patients, but then expanded to include a variety of tumor types. […] Before study entry, patients had to meet a number of eligibility criteria. Inclusion criteria included a) histologically-confirmed solid tumor malignancy with confirmation of metastasis, multiple myeloma, or plasmacytoma, b) need for palliative radiation therapy, c) for prostate cancer patients, PSA at least 2 ng/mL, except for patients who had recently started androgen deprivation therapy with PSA less than 2 ng/mL, d) […], e) life expectancy greater than 3 months, f) Eastern Cooperative Oncology Group (ECOG) performance status of zero or one or Karnofsky performance status 80%, and g) QT interval corrected using Fridericia's method (QTcF) <460 msec.
# Patients were treated in groups of three with each receiving the same dose. […] Dose escalation was to proceed as follows: a) if none of the three patients experienced a dose limiting toxicity (DLT), dose escalation to the next dose level would occur, b) if one of three patients treated at that dose level experienced a DLT, that dose level would be expanded to six subjects; if no additional patient in that cohort experienced a DLT, dose escalation to the next dose level would occur, c) if two patients in a cohort experienced a DLT, dose escalation would stop and the prior dose would be considered the maximum tolerated dose (MTD). At that point the MTD was to be expanded to a total of six patients.
# Baseline evaluations included EKG, PSA for prostate cancer patients, CBC with differential, CMP, LDH, bone scan (BS), or CT, PET/CT or MRI as clinically indicated to monitor response to therapy. Palliative radiation therapy utilized standard of care palliative dose/fractionation regimens. On Week 1, Day 1 patients underwent physical exam (PE), laboratory studies as above and EKG. All patients completed a pain inventory, the Brief Pain Inventory, prior to therapy. […] Weekly, during radiation therapy, patients had vital signs performed, with assessment of adverse events (AEs), labs and EKG if clinically indicated. The pain inventory was completed again on the last day of radiation therapy. Following completion of therapy, the first follow-up visit was within 2-3 months +/−2 weeks, with subsequent follow-up visits optional until progression of disease at the site of radiation. […] They also completed another pain inventory.
# [2] = Phase 1 trial: population PK model (NONMEM, 1-compartment, oral absorption) and simulations; conditions: human, in vivo
# [3] = 33 mg cohort, count-attribution
structure (smiles),measurement,setting,value
"O=[Se](O)O [sodium selenite, Sodium selenite pentahydrate]",Abdominal pain grade 1: Number of Occurrences,[1]; 33 mg cohort,3
same,Abdominal pain grade 1: Number of Subjects Affected,[1]; 33 mg cohort,3
same,Anemia grade 3: Number of Occurrences,[1]; 33 mg cohort,1
same,Anemia grade 3: Number of Subjects Affected,[1]; 33 mg cohort,1
same,Anemia grade 3: Relation to Selenite,[1]; 33 mg cohort,Unrelated
same,Back Pain grade 1: Number of Occurrences,[1]; 33 mg cohort,1
same,Back Pain grade 1: Number of Subjects Affected,[1]; 33 mg cohort,1
same,Back Pain grade 1: Relation to Selenite,[1]; 33 mg cohort,Unrelated
same,Bone Pain grade 1: Number of Occurrences,[1]; 33 mg cohort,1
same,Bone Pain grade 1: Number of Subjects Affected,[1]; 33 mg cohort,1
same,Bone Pain grade 1: Relation to Selenite,[1]; 33 mg cohort,Unrelated
same,Diarrhea grade 1: Number of Occurrences,[1]; 33 mg cohort,5
same,Diarrhea grade 1: Number of Subjects Affected,[1]; 33 mg cohort,4
same,Dizziness grade 1: Number of Occurrences,[1]; 33 mg cohort,1
same,Dizziness grade 1: Number of Subjects Affected,[1]; 33 mg cohort,1
same,Dizziness grade 1: Relation to Selenite,[1]; 33 mg cohort,Probable
same,Dysphagia grade 1: Number of Occurrences,[1]; 33 mg cohort,1
same,Dysphagia grade 1: Number of Subjects Affected,[1]; 33 mg cohort,1
same,Dysphagia grade 1: Relation to Selenite,[1]; 33 mg cohort,Unrelated
same,Dyspnea grade 1: Number of Occurrences,[1]; 33 mg cohort,1
same,Dyspnea grade 1: Number of Subjects Affected,[1]; 33 mg cohort,1
same,Dyspnea grade 1: Relation to Selenite,[1]; 33 mg cohort,Unrelated
same,Dyspnea grade 2: Number of Occurrences,[1]; 33 mg cohort,1
same,Dyspnea grade 2: Number of Subjects Affected,[1]; 33 mg cohort,1
same,Dyspnea grade 2: Relation to Selenite,[1]; 33 mg cohort,Unrelated
same,ECG QTcF Prolonged grade 1: Number of Occurrences,[1]; 33 mg cohort,2
same,ECG QTcF Prolonged grade 1: Number of Subjects Affected,[1]; 33 mg cohort,2
same,ECG QTcF Prolonged grade 1: Relation to Selenite,[1]; 33 mg cohort,Probable
same,Facial Pain grade 1: Number of Occurrences,[1]; 33 mg cohort,1
same,Facial Pain grade 1: Number of Subjects Affected,[1]; 33 mg cohort,1
same,Facial Pain grade 1: Relation to Selenite,[1]; 33 mg cohort,Unrelated
same,Fall (Mechanical) grade 2: Number of Occurrences,[1]; 33 mg cohort,2
same,Fall (Mechanical) grade 2: Number of Subjects Affected,[1]; 33 mg cohort,1
same,Fall (Mechanical) grade 2: Relation to Selenite,[1]; 33 mg cohort,Unrelated
same,Fatigue grade 1: Number of Occurrences,[1]; 33 mg cohort,2
same,Fatigue grade 1: Number of Subjects Affected,[1]; 33 mg cohort,2
same,Fatigue grade 1: Relation to Selenite,[1]; 33 mg cohort,Possible
same,Fatigue grade 2: Number of Occurrences,[1]; 33 mg cohort,2
same,Fatigue grade 2: Number of Subjects Affected,[1]; 33 mg cohort,1
same,Fatigue grade 2: Relation to Selenite,[1]; 33 mg cohort,"Unrelated,; also recorded: Possible"
same,Flu-like Symptoms grade 1: Number of Occurrences,[1]; 33 mg cohort,2
same,Flu-like Symptoms grade 1: Number of Subjects Affected,[1]; 33 mg cohort,1
same,Flu-like Symptoms grade 1: Relation to Selenite,[1]; 33 mg cohort,Unrelated
same,Nausea grade 1: Number of Occurrences,[1]; 33 mg cohort,8
same,Nausea grade 1: Number of Subjects Affected,[1]; 33 mg cohort,5
same,Nausea grade 2: Number of Occurrences,[1]; 33 mg cohort,1
same,Nausea grade 2: Number of Subjects Affected,[1]; 33 mg cohort,1
same,Paresthesia grade 1: Number of Occurrences,[1]; 33 mg cohort,1
same,Paresthesia grade 1: Number of Subjects Affected,[1]; 33 mg cohort,1
same,Paresthesia grade 1: Relation to Selenite,[1]; 33 mg cohort,Unrelated
same,Sore Throat grade 1: Number of Occurrences,[1]; 33 mg cohort,1
same,Sore Throat grade 1: Number of Subjects Affected,[1]; 33 mg cohort,1
same,Sore Throat grade 1: Relation to Selenite,[1]; 33 mg cohort,Unrelated
same,Upper Respiratory Infection grade 1: Number of Occurrences,[1]; 33 mg cohort,1
same,Upper Respiratory Infection grade 1: Number of Subjects Affected,[1]; 33 mg cohort,1
same,Upper Respiratory Infection grade 1: Relation to Selenite,[1]; 33 mg cohort,Unrelated
same,Vomiting grade 1: Number of Occurrences,[1]; 33 mg cohort,6
same,Vomiting grade 1: Number of Subjects Affected,[1]; 33 mg cohort,2
same,Vomiting grade 2: Number of Occurrences,[1]; 33 mg cohort,1
same,Vomiting grade 2: Number of Subjects Affected,[1]; 33 mg cohort,1
same,Vomiting grade 2: Relation to Selenite,[1]; 33 mg cohort,Probable
same,Abdominal pain grade 1: Relation to Selenite,[1]; [3],"1-Possible, and 2-Probably"
same,Diarrhea grade 1: Relation to Selenite,[1]; [3],"2-Possible, and 3-Probable"
same,Vomiting grade 1: Relation to Selenite,[1]; [3],"4-Probable, and 2-Unlikely"
same,Nausea grade 1: Relation to Selenite,"[1]; 33 mg cohort, printed 7-Probable, 1-Unrelated over four lines","Probable,; also recorded: Unrelated"
same,Nausea grade 2: Relation to Selenite,"[1]; 33 mg cohort, printed Probable/Definite over two lines",Probable/; also recorded: Definite
same,primary toxicities,[1]; 33 mg dose level,grade 1 GI side effects
same,QT prolongation,"[1]; 33 mg dose level, ECG review",grade 1 QT prolongation in 2 patients; also recorded: two patients had grade 1 ECG QTcF prolongations; also recorded: within the range of expected intra-subject variability
same,primary toxicities,"[1]; 33 mg dose level, listed as selenite",grade 1 GI side effects; also recorded: grade 1 GI toxicities
same,Back Pain grade 2: Number of Occurrences,[1]; 49.5 mg cohort,1
same,Back Pain grade 2: Number of Subjects Affected,[1]; 49.5 mg cohort,1
same,Back Pain grade 2: Relation to Selenite,[1]; 49.5 mg cohort,Unrelated
same,Diarrhea grade 2: Number of Occurrences,[1]; 49.5 mg cohort,1
same,Diarrhea grade 2: Number of Subjects Affected,[1]; 49.5 mg cohort,1
same,Diarrhea grade 2: Relation to Selenite,[1]; 49.5 mg cohort,Possible
same,Fatigue grade 1: Number of Occurrences,[1]; 49.5 mg cohort,1
same,Fatigue grade 1: Number of Subjects Affected,[1]; 49.5 mg cohort,1
same,Fatigue grade 1: Relation to Selenite,[1]; 49.5 mg cohort,Possible
same,Nausea grade 1: Number of Occurrences,[1]; 49.5 mg cohort,1
same,Nausea grade 1: Number of Subjects Affected,[1]; 49.5 mg cohort,1
same,Nausea grade 1: Relation to Selenite,[1]; 49.5 mg cohort,Probable
same,Nausea grade 2: Number of Occurrences,[1]; 49.5 mg cohort,1
same,Nausea grade 2: Number of Subjects Affected,[1]; 49.5 mg cohort,1
same,Nausea grade 2: Relation to Selenite,[1]; 49.5 mg cohort,Probable
same,Pain in Extremity grade 2: Number of Occurrences,[1]; 49.5 mg cohort,1
same,Pain in Extremity grade 2: Number of Subjects Affected,[1]; 49.5 mg cohort,1
same,Pain in Extremity grade 2: Relation to Selenite,[1]; 49.5 mg cohort,Unrelated
same,Vomiting grade 1: Number of Occurrences,[1]; 49.5 mg cohort,1
same,Vomiting grade 1: Number of Subjects Affected,[1]; 49.5 mg cohort,1
same,Vomiting grade 1: Relation to Selenite,[1]; 49.5 mg cohort,Probable
same,Vomiting grade 2: Number of Occurrences,[1]; 49.5 mg cohort,1
same,Vomiting grade 2: Number of Subjects Affected,[1]; 49.5 mg cohort,1
same,Vomiting grade 2: Relation to Selenite,[1]; 49.5 mg cohort,Probable
same,toxicity in the one patient at 49.5 mg,"[1]; 49.5 mg dose level, 1 patient","grade 2 nausea/vomiting and diarrhea; also recorded: grade 2 GI toxicity; also recorded: grade 2 diarrhea, nausea and vomiting"
same,toxicity / adverse events attributable to selenite,"[1]; 5.5, 11 and 16.5 mg dose levels, oral 2 h before RT",no toxicity attributable to selenite; also recorded: no adverse events attributable to selenite; also recorded: no AEs attributable to the selenite
same,toxicities at all other dose levels,[1]; 33 and 49.5 mg dose levels,grade 1 and 2 GI toxicities
same,maximum tolerated dose (MTD),[1]; doses 5.5 to 49.5 mg po/day with RT,not reached
same,highest acceptable / reasonably well tolerated dose,"[1]; oral once daily with RT, ondansetron prn",33 mg
same,Tmax,[2]; both,4.05 h
same,AUC,"[2]; both, 1100 mcg",6160 ng·h/mL
same,Cmax,"[2]; both, 1100 mcg",301 ng/mL
same,AUC,"[2]; both, 5500 mcg",3630 ng·h/mL
same,Cmax,"[2]; both, 5500 mcg",215 ng/mL
same,Tmax,"[2]; both, 5500 mcg",3.65 h
same,AUC,"[2]; both, 16500 mcg",8280 ng·h/mL
same,Cmax,"[2]; both, 16500 mcg",366 ng/mL
same,Tmax,"[2]; both, 16500 mcg",4.15 h
same,AUC,"[2]; both, 33000 mcg",13300 ng·h/mL
same,Cmax,"[2]; both, 33000 mcg",496 ng/mL
same,Tmax,"[2]; both, 33000 mcg",4.35 h
same,AUC,"[2]; both, 49500 mcg",17000 ng·h/mL
same,Cmax,"[2]; both, 49500 mcg",593 ng/mL
same,Tmax,"[2]; both, 49500 mcg",4.4 h
same,half-life,"[2]; half-life, simple formulation used in phase 1 trial",~19 h
same,AUC,"[2]; po, 5.5 mg",3700 ng·h/mL
same,Cmax,"[2]; po, 5.5 mg",214 ng/mL
same,AUC,"[2]; po, 11 mg",6250 ng·h/mL
same,Cmax,"[2]; po, 11 mg",301 ng/mL
same,AUC,"[2]; po, 16.5 mg",8360 ng·h/mL
same,Cmax,"[2]; po, 16.5 mg",366 ng/mL
same,AUC,"[2]; po, 33 mg",13300 ng·h/mL
same,Cmax,"[2]; po, 33 mg",497 ng/mL
same,AUC,"[2]; po, 49.5 mg",16900 ng·h/mL
same,Cmax,"[2]; po, 49.5 mg",595 ng/mL
same,half-life,"[2]; po, half-life calculated from population PK model, patients with metastatic cancer",~18.5 h
